# Patent US9364457B2, “Method for manufacturing composition for lowering blood lipid and elevating high-density lipoprotein” (SunWay Biotech Co., Ltd., priority 2011, dated 2016)
# Legend:
# [1] = system: hamsters feed with high cholesterol diet; experiment: Cholesterol parameters in blood of hamsters fed high cholesterol diet; format: in vivo; conditions: ratio of LDL-C to HDL-C, hamsters on high cholesterol diet, 8 weeks
# Procedure: Additionally, a composition containing monacolin K is utilized as a comparison group, which is called as MK for abbreviation.
# Firstly, the experiment utilizes hamsters feed with high cholesterol diet as experimental animals, which are then feed with MS, AF, MS+AF, and MK for 8 weeks, and then each of cholesterol parameters in blood of the hamsters are analyzed. The cholesterol parameters include total cholesterol (TC), triglyceride (TG), high density lipoprotein cholesterol (HDL-C), low density lipoprotein cholesterol (LDL-C), ratio of LDL-C to HDL-C, and malondialdehyde (MDA). […] Additionally, a normal diet group is referred to as NOR, and a high cholesterol diet group is referred to as HC.
# [2] = system: cholesterol biosynthesis; experiment: Cell experiment on inhibition of cholesterol biosynthesis; format: cell-based; conditions: cells treated with the same concentration, 100 ppb
# Excerpt: In order to compare the inhibitory effect of cholesterol biosynthesis by monascin, ankaflavin and monacolin K, the present invention applies a cell experiment and treats cells with monascin, ankaflavin and monacolin K with the same concentration (100 ppb) for researching the influence of these ingredients on the cholesterol biosynthesis.
# [3] = system: lipid plaque on arterial vascular walls in the thoracic cavity; experiment: Lipid plaque staining in arteries of high cholesterol diet animals; format: in vivo, hamsters; conditions: high cholesterol diet for eight weeks, human-equivalent per day: MK 2.89 mg, MS 9.82 mg, AF 1.43 mg
# Procedure: Firstly, the experiment utilizes hamsters feed with high cholesterol diet as experimental animals, which are then feed with MS, AF, MS+AF, and MK for 8 weeks, and then each of cholesterol parameters in blood of the hamsters are analyzed. The cholesterol parameters include total cholesterol (TC), triglyceride (TG), high density lipoprotein cholesterol (HDL-C), low density lipoprotein cholesterol (LDL-C), ratio of LDL-C to HDL-C, and malondialdehyde (MDA). The amount of the MK taken by the experimental animals is equivalent to 2.89 mg taken by an adult human per day. Additionally, a normal diet group is referred to as NOR, and a high cholesterol diet group is referred to as HC.
# Another important indicator for evaluating atherosclerosis is the analysis of lipid plaque staining in arteries, and the results of lipid plaque staining can indicate that whether lipid plaque deposits on arterial vascular walls. Large amounts of lipid with over-oxidation can cause bulk deposition of foam cells, and then the vascular walls lose elasticity and large amounts of lipid plaque are deposited, so as to lead to atherosclerosis. Referring to FIG. 11, which is a diagram of quantitative results of the lipid plaque staining experiment.
smiles,measurement,setting,value
"CC[C@H](C)C(=O)O[C@H]1C[C@@H](C)C=C2C=C[C@H](C)[C@H](CC[C@@H]3C[C@@H](O)CC(=O)O3)[C@H]21 [MK, monacolin K]",LDL/HDL,[1],0.489
same,inhibition of cholesterol biosynthesis (FIG. 12),[2],weakest effect
same,"amount of lipid plaque on arterial vascular walls (lipid plaque staining, FIG. 11)",[3],can lower the amount of lipid plaque
